Columns and labels:
Assay type in all cases: biochemical
recombinant GTase A42 = target: T1, recombinant GTase A42 (Arabidopsis thaliana, UniProt O23401); assay: Kinetic studies (Michaelis-Menten) on recombinant GTase producing glucose esters; details: glucose ester formation
T1 construct: made in house; host or cells: E. coli
T1 sequence (O23401 1-479): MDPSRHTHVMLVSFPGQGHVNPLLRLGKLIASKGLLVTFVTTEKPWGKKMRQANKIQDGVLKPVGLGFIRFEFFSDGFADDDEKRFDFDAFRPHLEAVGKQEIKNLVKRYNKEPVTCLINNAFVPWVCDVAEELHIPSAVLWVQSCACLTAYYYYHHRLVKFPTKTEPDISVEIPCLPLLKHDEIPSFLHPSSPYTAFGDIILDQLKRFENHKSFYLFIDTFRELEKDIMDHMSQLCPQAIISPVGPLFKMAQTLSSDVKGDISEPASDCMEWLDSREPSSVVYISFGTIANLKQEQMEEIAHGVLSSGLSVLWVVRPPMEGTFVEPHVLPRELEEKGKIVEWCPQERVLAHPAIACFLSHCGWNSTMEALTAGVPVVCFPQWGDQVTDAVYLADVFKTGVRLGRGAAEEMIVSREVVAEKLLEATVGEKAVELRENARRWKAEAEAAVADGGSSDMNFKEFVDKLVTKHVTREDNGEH

recombinant GTase A961 = target: T2, recombinant GTase A961 (Arabidopsis thaliana, UniProt O82381); assay: Specific activity of recombinant GTase producing O-glucosides against lignin precursors (HPLC); details: 30° C.; ND = not detected
T2 construct: made in house; host or cells: E. coli
T2 sequence (O82381 1-481): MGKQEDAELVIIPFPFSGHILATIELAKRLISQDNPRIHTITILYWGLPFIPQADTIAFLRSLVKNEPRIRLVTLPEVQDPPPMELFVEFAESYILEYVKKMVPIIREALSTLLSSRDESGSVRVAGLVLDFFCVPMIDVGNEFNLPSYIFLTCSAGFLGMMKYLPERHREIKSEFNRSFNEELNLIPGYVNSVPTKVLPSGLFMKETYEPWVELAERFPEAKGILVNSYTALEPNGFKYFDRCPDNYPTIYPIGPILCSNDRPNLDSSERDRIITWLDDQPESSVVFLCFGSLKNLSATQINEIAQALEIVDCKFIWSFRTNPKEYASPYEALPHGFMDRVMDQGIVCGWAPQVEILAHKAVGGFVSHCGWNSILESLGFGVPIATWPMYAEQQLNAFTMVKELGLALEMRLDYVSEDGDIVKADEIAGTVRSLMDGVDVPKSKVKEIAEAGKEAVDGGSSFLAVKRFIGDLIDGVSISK

recombinant GTase A962 = target: T3, recombinant GTase A962 (Arabidopsis thaliana, UniProt O82382); assay: as above; details: 30° C.; ND = not detected
T3 construct: made in house; host or cells: E. coli
T3 sequence (O82382 1-474): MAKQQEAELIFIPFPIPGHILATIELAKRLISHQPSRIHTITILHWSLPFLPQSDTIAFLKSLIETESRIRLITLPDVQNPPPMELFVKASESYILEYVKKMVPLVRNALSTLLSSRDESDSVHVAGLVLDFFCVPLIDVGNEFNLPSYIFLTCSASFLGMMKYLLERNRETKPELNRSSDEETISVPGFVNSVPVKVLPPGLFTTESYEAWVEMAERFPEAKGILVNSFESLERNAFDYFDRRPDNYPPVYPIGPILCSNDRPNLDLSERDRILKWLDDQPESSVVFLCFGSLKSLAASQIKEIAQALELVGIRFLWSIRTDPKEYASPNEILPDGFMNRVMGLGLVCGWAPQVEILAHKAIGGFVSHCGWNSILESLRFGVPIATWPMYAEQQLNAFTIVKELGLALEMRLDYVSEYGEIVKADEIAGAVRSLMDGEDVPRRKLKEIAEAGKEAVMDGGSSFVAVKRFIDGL

SMILES | Vmax (A42) (recombinant GTase A42) [nkat/mg] | Specific activity of A961 (substrate converted to 4-O-glucoside) (recombinant GTase A961) [nkat/mg] | Specific activity of A962 (substrate converted to 4-O-glucoside) (recombinant GTase A962) [nkat/mg]
COc1cc(/C=C/C(=O)O)ccc1O [Ferulic acid, ferulic acid] | 18.35 | – | –
O=C(O)/C=C/c1ccc(O)cc1 [p-coumaric acid] | – | 0.01 | 0.01
